Laboratory results: patent publication EP4722212A1, “NOVEL COMPOUND FOR INHIBITING PROTEIN KINASES AND PHARMACEUTICAL COMPOSITION COMPRISING SAME” (Magicbullettherapeutics Co., Ltd., priority 2023, dated 2024)
Read-outs that look alike come from different tables or passages of the source.

How the values were obtained:
Assay in all cases: Kinase panel
Type in all cases: biochemical
AKT1 = AKT1 (Homo sapiens, UniProt P31749); conditions: AKT1, 1 µM; read-out: residual enzyme activity
Method: (§1) To measure the inhibitory activity of protein kinases against the compounds of the present invention, a biochemical assay was performed using a full kinase panel. The inhibitory efficacy of kinases was measured when Example compounds 8 and 51 were treated at a single concentration of 1 µM, and residual enzyme activity values were calculated. Kinases were identified when the calculated residual enzyme activity values were 40% or less, i.e., inhibited by 60% or more.

C-KIT = C-KIT (Homo sapiens, UniProt P10721); conditions: read-out: residual enzyme activity
Method: as §1

CAMK1B = CAMK1B (Homo sapiens, UniProt Q6P2M8); conditions: read-out: residual enzyme activity
Method: as §1

CDK1/CYCLIN A = CDK1/CYCLIN A (Homo sapiens, UniProt P06493); conditions: read-out: residual enzyme activity
Method: as §1

CDK3/CYCLIN E = CDK3/CYCLIN E (Homo sapiens, UniProt Q00526); conditions: read-out: residual enzyme activity
Method: as §1

CDK9/CYCLIN T1 = CDK9/CYCLIN T1 (Homo sapiens, UniProt P50750); conditions: CDK9/cyclin T1, 1 µM; read-out: residual enzyme activity
Method: as §1

CK2A = CK2A (Homo sapiens, UniProt P68400); conditions: read-out: residual enzyme activity
Method: as §1

CLK1 = CLK1 (Homo sapiens, UniProt P49759); conditions: CLK1, 1 µM; read-out: residual enzyme activity
Method: as §1

DMPK2 = DMPK2 (Homo sapiens, UniProt Q6DT37); conditions: DMPK2, 1 µM; read-out: residual enzyme activity
Sequence of DMPK2 (Q6DT37 whole entry, species assumed): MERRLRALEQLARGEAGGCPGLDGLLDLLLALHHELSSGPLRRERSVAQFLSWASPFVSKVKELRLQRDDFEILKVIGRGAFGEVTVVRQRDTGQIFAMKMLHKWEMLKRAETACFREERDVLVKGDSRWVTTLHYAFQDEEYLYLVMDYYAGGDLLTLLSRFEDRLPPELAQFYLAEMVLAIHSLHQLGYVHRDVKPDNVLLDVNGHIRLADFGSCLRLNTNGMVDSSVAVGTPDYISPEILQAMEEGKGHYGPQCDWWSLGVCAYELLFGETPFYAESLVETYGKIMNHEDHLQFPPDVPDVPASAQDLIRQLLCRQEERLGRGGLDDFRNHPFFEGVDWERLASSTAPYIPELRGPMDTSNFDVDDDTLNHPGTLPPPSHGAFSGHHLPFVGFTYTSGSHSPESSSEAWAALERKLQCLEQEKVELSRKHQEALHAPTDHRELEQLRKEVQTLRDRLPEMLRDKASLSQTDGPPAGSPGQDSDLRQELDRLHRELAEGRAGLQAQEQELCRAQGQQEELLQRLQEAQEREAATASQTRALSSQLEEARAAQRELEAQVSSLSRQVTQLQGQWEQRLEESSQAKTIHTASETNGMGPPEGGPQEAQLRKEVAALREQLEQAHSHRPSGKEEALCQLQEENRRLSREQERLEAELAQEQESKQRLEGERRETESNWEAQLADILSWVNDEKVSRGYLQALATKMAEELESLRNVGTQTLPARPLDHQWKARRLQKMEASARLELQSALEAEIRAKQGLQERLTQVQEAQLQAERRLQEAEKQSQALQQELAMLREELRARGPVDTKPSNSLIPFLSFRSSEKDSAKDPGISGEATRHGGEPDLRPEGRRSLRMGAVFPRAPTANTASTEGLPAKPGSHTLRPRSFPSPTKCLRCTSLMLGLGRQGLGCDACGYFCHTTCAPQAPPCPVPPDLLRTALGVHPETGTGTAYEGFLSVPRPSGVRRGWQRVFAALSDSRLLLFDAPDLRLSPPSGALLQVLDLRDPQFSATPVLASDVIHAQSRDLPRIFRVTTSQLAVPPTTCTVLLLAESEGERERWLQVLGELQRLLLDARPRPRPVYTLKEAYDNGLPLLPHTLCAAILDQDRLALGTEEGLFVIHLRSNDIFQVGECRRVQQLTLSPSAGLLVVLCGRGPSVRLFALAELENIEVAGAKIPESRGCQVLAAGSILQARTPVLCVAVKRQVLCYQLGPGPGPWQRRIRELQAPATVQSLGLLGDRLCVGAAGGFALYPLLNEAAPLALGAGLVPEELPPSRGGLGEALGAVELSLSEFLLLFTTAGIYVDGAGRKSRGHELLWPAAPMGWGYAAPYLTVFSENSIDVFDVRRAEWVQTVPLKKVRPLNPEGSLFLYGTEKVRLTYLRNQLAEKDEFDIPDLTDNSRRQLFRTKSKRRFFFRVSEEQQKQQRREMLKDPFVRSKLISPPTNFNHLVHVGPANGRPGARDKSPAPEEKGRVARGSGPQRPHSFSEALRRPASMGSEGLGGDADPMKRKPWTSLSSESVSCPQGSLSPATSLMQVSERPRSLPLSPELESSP
Method: as §1

DYRK2 = DYRK2 (Homo sapiens, UniProt Q92630); conditions: DYRK2, 1 µM; read-out: residual enzyme activity
Sequence of DYRK2 (Q92630 whole entry, species assumed): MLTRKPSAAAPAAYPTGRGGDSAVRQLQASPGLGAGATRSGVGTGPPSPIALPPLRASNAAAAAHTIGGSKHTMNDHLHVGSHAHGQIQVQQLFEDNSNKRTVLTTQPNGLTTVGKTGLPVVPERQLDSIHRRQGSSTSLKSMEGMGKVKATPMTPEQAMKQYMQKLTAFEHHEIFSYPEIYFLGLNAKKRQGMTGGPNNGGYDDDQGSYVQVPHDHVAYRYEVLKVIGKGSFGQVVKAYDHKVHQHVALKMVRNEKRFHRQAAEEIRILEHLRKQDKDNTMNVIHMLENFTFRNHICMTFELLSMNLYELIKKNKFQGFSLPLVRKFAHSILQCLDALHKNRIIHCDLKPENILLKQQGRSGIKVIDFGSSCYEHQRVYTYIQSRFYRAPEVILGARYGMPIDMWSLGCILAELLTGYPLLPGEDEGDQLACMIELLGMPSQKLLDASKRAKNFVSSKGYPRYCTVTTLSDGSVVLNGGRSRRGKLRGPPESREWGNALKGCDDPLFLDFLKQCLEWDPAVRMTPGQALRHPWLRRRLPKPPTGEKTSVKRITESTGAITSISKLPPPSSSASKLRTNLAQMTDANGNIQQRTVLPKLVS
Method: as §1

DYRK3 = DYRK3 (Homo sapiens, UniProt O43781); conditions: DYRK3, 1 µM; read-out: residual enzyme activity
Sequence of DYRK3 (O43781 whole entry, species assumed): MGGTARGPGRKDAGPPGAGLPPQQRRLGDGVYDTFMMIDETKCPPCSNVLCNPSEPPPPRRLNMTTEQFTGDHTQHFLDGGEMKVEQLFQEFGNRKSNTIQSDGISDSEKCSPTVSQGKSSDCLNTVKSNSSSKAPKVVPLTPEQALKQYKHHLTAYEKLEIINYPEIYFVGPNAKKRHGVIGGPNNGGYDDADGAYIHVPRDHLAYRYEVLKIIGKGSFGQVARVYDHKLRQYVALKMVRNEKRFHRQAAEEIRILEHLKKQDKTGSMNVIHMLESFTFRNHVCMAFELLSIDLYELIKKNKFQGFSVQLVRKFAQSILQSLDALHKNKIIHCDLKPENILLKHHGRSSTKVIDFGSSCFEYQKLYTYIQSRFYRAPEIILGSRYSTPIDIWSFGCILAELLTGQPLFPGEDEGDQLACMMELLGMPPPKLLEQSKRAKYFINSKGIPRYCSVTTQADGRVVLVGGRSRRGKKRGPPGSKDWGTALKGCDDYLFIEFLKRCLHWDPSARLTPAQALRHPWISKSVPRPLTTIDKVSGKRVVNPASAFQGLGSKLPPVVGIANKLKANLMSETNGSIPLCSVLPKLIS
Method: as §1

EPHA1 = EPHA1 (Homo sapiens, UniProt P21709); conditions: EPHA1, 1 µM; read-out: residual enzyme activity
Method: as §1

ERK1 = ERK1 (Homo sapiens, UniProt P27361); conditions: ERK1, 1 µM; read-out: residual enzyme activity
Method: as §1

ERN2/IRE2 = ERN2/IRE2 (Homo sapiens, UniProt Q76MJ5); conditions: ERN2/IRE2, 1 µM; read-out: residual enzyme activity
Method: as §1

FAK/PTK2 = FAK/PTK2 (Homo sapiens, UniProt Q05397); conditions: FAK/PTK2, 1 µM; read-out: residual enzyme activity
Method: as §1

FMS = FMS (Homo sapiens, UniProt P07333); conditions: read-out: residual enzyme activity
Method: as §1

HCK = HCK (Homo sapiens, UniProt P08631); conditions: read-out: residual enzyme activity
Method: as §1

HIPK1 = HIPK1 (Homo sapiens, UniProt Q86Z02); conditions: HIPK1, 1 µM; read-out: residual enzyme activity
Sequence of HIPK1 (Q86Z02 whole entry, species assumed): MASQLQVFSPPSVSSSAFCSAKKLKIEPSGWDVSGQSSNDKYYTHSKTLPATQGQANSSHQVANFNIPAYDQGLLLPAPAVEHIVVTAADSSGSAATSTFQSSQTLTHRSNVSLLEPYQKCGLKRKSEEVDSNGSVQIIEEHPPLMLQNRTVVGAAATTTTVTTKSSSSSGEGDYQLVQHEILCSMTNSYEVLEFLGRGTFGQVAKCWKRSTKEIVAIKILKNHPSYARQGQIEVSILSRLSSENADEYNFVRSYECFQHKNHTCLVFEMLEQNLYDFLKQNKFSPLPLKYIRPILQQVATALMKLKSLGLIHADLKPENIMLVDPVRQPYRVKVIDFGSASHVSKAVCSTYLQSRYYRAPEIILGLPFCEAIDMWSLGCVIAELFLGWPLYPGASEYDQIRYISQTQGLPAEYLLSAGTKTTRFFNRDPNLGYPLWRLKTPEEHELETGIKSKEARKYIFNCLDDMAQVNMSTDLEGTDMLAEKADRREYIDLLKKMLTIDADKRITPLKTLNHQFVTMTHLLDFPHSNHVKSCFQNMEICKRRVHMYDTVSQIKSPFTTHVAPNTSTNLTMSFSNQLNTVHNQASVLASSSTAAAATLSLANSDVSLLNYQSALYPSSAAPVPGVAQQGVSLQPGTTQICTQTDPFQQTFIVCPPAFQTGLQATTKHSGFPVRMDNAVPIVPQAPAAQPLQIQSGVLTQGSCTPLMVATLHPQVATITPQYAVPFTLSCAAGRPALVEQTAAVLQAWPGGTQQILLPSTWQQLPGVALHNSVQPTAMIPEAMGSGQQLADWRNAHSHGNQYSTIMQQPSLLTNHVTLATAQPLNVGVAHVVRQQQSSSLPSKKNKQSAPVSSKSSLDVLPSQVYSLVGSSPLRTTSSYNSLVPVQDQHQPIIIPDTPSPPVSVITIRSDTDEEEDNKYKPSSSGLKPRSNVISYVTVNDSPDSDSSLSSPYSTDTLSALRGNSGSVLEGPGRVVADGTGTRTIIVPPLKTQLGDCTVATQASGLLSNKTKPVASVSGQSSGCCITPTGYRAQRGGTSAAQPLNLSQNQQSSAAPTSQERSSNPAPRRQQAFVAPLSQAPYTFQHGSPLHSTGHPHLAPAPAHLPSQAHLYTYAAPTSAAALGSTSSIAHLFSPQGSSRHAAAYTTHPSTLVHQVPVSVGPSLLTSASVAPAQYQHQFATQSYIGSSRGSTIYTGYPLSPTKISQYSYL
Method: as §1

HPK1/MAP4K1 = HPK1/MAP4K1 (Homo sapiens, UniProt Q92918); conditions: HPK1/MAP4K1, 1 µM; read-out: residual enzyme activity
Method: as §1

IKKA/CHUK = IKKA/CHUK (Homo sapiens, UniProt O15111); conditions: read-out: residual enzyme activity
Method: as §1

MLK4 = MLK4 (Homo sapiens, UniProt Q5TCX8); conditions: MLK4, 1 µM; read-out: residual enzyme activity
Method: as §1

NEK4 = NEK4 (Homo sapiens, UniProt P51957); conditions: NEK4, 1 µM; read-out: residual enzyme activity
Sequence of NEK4 (P51957 whole entry, species assumed): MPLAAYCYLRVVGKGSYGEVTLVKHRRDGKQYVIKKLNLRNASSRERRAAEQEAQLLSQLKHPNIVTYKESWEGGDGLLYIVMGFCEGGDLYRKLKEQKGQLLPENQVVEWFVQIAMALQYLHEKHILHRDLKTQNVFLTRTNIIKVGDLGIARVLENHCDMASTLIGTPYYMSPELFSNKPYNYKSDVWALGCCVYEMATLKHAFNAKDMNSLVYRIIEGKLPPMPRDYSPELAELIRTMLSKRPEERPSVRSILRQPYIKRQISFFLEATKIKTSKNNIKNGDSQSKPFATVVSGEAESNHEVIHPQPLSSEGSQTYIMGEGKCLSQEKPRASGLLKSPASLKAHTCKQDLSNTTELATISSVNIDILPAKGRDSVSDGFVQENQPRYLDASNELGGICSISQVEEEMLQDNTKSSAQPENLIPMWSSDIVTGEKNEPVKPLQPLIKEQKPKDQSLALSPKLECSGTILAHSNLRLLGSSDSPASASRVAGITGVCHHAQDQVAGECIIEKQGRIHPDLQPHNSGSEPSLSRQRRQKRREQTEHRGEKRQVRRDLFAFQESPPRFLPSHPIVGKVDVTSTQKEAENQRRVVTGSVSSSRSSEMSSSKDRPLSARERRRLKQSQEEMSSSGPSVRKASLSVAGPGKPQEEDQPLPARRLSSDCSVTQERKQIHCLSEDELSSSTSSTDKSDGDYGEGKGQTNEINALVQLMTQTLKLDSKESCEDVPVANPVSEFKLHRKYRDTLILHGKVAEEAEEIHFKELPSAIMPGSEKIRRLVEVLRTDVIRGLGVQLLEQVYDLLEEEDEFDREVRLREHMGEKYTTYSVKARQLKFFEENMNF
Method: as §1

P38D/MAPK13 = P38D/MAPK13 (Homo sapiens, UniProt O15264); conditions: read-out: residual enzyme activity
Method: as §1

PHKG2 = PHKG2 (Homo sapiens, UniProt P15735); conditions: PHKg2, 1 µM; read-out: residual enzyme activity
Method: as §1

PKCNU/PRKD3 = PKCNU/PRKD3 (Homo sapiens, UniProt O94806); conditions: PKCnu/PRKD3, 1 µM; read-out: residual enzyme activity
Method: as §1

PRKX = PRKX (Homo sapiens, UniProt P51817); conditions: read-out: residual enzyme activity
Method: as §1

RET = RET (Homo sapiens, UniProt P07949); conditions: read-out: residual enzyme activity
Method: as §1

RIPK5 = RIPK5 (Homo sapiens, UniProt Q6XUX3); conditions: RIPK5, 1 µM; read-out: residual enzyme activity
Method: as §1

SIK1 = SIK1 (Homo sapiens, UniProt P57059); conditions: SIK1, 1 µM; read-out: residual enzyme activity
Method: as §1

TAK1 = TAK1 (Homo sapiens, UniProt O43318); conditions: TAK1, 1 µM; read-out: residual enzyme activity
Sequence of TAK1 (O43318 1-303 limits assumed): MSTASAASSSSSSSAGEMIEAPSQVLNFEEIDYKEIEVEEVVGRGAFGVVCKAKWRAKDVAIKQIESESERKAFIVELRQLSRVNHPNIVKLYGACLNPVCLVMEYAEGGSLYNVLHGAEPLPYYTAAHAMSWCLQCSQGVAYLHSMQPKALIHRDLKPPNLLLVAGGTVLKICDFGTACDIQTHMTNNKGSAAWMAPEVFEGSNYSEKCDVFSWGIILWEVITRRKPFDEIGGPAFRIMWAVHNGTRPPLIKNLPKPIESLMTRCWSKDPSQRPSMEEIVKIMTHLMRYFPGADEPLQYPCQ
Method: as §1

TAOK3/JIK = TAOK3/JIK (Homo sapiens, UniProt Q9H2K8); conditions: read-out: residual enzyme activity
Method: as §1

TESK2 = TESK2 (Homo sapiens, UniProt Q96S53); conditions: TESK2, 1 µM; read-out: residual enzyme activity
Method: as §1

TSSK3/STK22C = TSSK3/STK22C (Homo sapiens, UniProt Q96PN8); conditions: read-out: residual enzyme activity
Method: as §1

TTBK2 = TTBK2 (Homo sapiens, UniProt Q6IQ55); conditions: TTBK2, 1 µM; read-out: residual enzyme activity
Method: as §1

| Structure (SMILES) | remaining activity at 1 µM (AKT1) | remaining activity at 1 µM (CDK1/CYCLIN A) | remaining activity at 1 µM (CDK3/CYCLIN E) | remaining activity at 1 µM (CDK9/CYCLIN T1) | remaining activity at 1 µM (CLK1) | remaining activity at 1 µM (DMPK2) | remaining activity at 1 µM (DYRK2) | remaining activity at 1 µM (DYRK3) | remaining activity at 1 µM (EPHA1) | remaining activity at 1 µM (ERK1) | remaining activity at 1 µM (ERN2/IRE2) | remaining activity at 1 µM (FAK/PTK2) | remaining activity at 1 µM (FMS) | remaining activity at 1 µM (HCK) | remaining activity at 1 µM (HIPK1) | remaining activity at 1 µM (HPK1/MAP4K1) | remaining activity at 1 µM (IKKA/CHUK) | remaining activity at 1 µM (MLK4) | remaining activity at 1 µM (NEK4) | remaining activity at 1 µM (PHKG2) | also measured |
| --- | --- | --- | --- | --- | --- | --- | --- | --- | --- | --- | --- | --- | --- | --- | --- | --- | --- | --- | --- | --- | --- |
| Cc1cn(-c2cc(C(=O)Nc3ccc(C)c(N4Cc5cnc(NC6CC6)nc5C5(CC5)C4=O)c3)cc(C(F)(F)F)c2)cn1 [Compound 8, N-(3-(2'-(cyclopropylamino)-7'-oxo-5'H-spiro[cyclopropane-1,8'-pyrido[4,3-d]pyrimidine]-6'(7'H)-yl)-4-methylphenyl)-3-(4-methyl-1H-imidazol-1-yl)-5-(trifluoromethyl)benzamide] | > 40% | > 40% | > 40% | > 40% | > 40% | > 40% | > 40% | > 40% | ≤ 40% | > 40% | > 40% | ≤ 40% | ≤ 40% | ≤ 40% | > 40% | ≤ 40% | > 40% | > 40% | ≤ 40% | > 40% | remaining activity at 1 µM (C-KIT; C-KIT): ≤ 40%; remaining activity at 1 µM (CAMK1B; CAMK1B): > 40%; remaining activity at 1 µM (CK2A; CK2A): > 40%; remaining activity at 1 µM (P38D/MAPK13; P38D/MAPK13, 1 µM): > 40%; remaining activity at 1 µM (PKCNU/PRKD3): > 40%; remaining activity at 1 µM (PRKX): > 40%; remaining activity at 1 µM (RET): ≤ 40%; remaining activity at 1 µM (RIPK5): > 40%; remaining activity at 1 µM (SIK1): ≤ 40%; remaining activity at 1 µM (TAK1): ≤ 40%; remaining activity at 1 µM (TAOK3/JIK): ≤ 40%; remaining activity at 1 µM (TESK2): ≤ 40%; remaining activity at 1 µM (TSSK3/STK22C): > 40%; remaining activity at 1 µM (TTBK2): > 40% |
| Cc1ccc(Nc2ncc3c(n2)C2(CC2)C(=O)N(c2cc(NC(=O)c4cccc(C(F)(F)F)c4)ccc2C)C3)cn1 [Compound 51, N-(4-methyl-3-(2'-((6-methylpyridin-3-yl)amino)-7'-oxo-5'H-spiro[cyclopropane-1,8'-pyrido[4,3-d]pyrimidine]-6'(7'H)-yl)phenyl)-3-(trifluoromethyl)benzamide] | > 40% | > 40% | > 40% | > 40% | > 40% | > 40% | > 40% | > 40% | ≤ 40% | > 40% | > 40% | ≤ 40% | ≤ 40% | ≤ 40% | > 40% | ≤ 40% | > 40% | > 40% | ≤ 40% | > 40% | remaining activity at 1 µM (C-KIT; c-Kit): ≤ 40%; remaining activity at 1 µM (CAMK1B; CAMK1b): > 40%; remaining activity at 1 µM (CK2A; CK2a): > 40%; remaining activity at 1 µM (P38D/MAPK13; P38d/MAPK13, 1 µM): > 40%; remaining activity at 1 µM (PKCNU/PRKD3): > 40%; remaining activity at 1 µM (PRKX): > 40%; remaining activity at 1 µM (RET): ≤ 40%; remaining activity at 1 µM (RIPK5): > 40%; remaining activity at 1 µM (SIK1): ≤ 40%; remaining activity at 1 µM (TAK1): ≤ 40%; remaining activity at 1 µM (TAOK3/JIK): ≤ 40%; remaining activity at 1 µM (TESK2): ≤ 40%; remaining activity at 1 µM (TSSK3/STK22C): > 40%; remaining activity at 1 µM (TTBK2): > 40% |
